Measured values published in ChEMBL document CHEMBL1146801, “Oxyguanidines. Part 2: Discovery of a novel orally active thrombin inhibitor through structure-based drug design and parallel synthesis” (Bioorg Med Chem Lett, 2004).

Experiments:
Prothrombin = Prothrombin (Homo sapiens, UniProt P00734); assay: Inhibitory activity against thrombin
[1] = Half life on i.v. administration of 2 mg/kg was measured in dog; type: ADME, organism-based, Canis lupus familiaris; set-up: dose 2 mg/kg, route intravenous; conditions: in vivo, iv
[2] = Cmax on p.o. administration of 10 mg/kg was measured in dog; type: ADME, organism-based, Canis lupus familiaris; set-up: dose 10 mg/kg, route oral; conditions: in vivo, po
[3] = Bioavailability in dog; type: ADME, organism-based, Canis lupus familiaris; conditions: in vivo
[4] = Clearance on i.v. administration of 2 mg/kg was measured in dog; type: ADME, organism-based, Canis lupus familiaris; set-up: dose 2 mg/kg, route intravenous; conditions: in vivo, iv
[5] = Vss on i.v. administration of 2 mg/kg was measured in dog; type: ADME, organism-based, Canis lupus familiaris; set-up: dose 2 mg/kg, route intravenous; conditions: in vivo, iv, read-out: Vss
Caco-2 = assay: Apparent permeability coefficient (Papp) from the apical to basolateral side in the human Caco-2 monolayer was determined; type: functional
Homo sapiens = organism: Homo sapiens; assay: Concentration of compound required to double the human activated partial thromboplastin time; type: functional

| Ki (Prothrombin) | Structure (SMILES) | further results |
| --- | --- | --- |
| 34 nM | Cc1cc(OCCCONC(=N)N)cc(C(=O)N(Cc2cccnc2)CC2CC2)c1 |  |
| 8 nM | Cc1cc(OCCCONC(=N)N)cc(C(=O)N(CCCCCC(N)=O)C2CCCCC2)c1 |  |
| 38 nM | CCCN(CC1CCCC1)C(=O)c1cc(Cl)cc(OCCCONC(=N)N)c1 |  |
| 20 nM | C=CCN(Cc1ccoc1)C(=O)c1cc(Cl)cc(OCCCONC(=N)N)c1 |  |
|  | Cc1cc(OCCCON=C(N)N)cc(C(=O)N(Cc2ccoc2)CC2CC2)c1 | Activity (Caco-2): 3e-06 cm/s; 2 x APTT (Homo sapiens): 8.4 µM |
| 470 nM | N=C(N)NOCCCOc1cc(Cl)cc(C(=O)N2CCCCCC2)c1 |  |
| 1500 nM | N=C(N)NOCCCOc1cc(Cl)cc(C(=O)N2CCC(Cc3ccccc3)CC2)c1 |  |
| 213 nM | N=C(N)NOCCCOc1cc(Cl)cc(C(=O)N(CCC(=O)O)CC2CC2)c1 |  |
| 640 nM | N=C(N)NOCCCOc1cc(Cl)cc(C(=O)N2CCN(c3ccccn3)CC2)c1 |  |
| 1600 nM | CCN(Cc1ccncc1)C(=O)c1cc(Cl)cc(OCCCONC(=N)N)c1 |  |
| 9 nM | CCCN(Cc1ccoc1)C(=O)c1cc(C)cc(OCCCONC(=N)N)c1 | half-life [1]: 3.8 h; Cmax [2]: 4.5 µM; bioavailability [3]: 62%; clearance [4]: 10.1 mL/min/kg; Vd [5]: 2.4 L/kg |
| 195 nM | CCCN(Cc1nccs1)C(=O)c1cc(C)cc(OCCCONC(=N)N)c1 |  |
| 880 nM | N=C(N)NOCCCOc1cc(Cl)cc(C(=O)N2CCCCC2)c1 |  |
| 31 nM | Cc1cc(OCCCONC(=N)N)cc(C(=O)N(Cc2ccsc2)CC2CC2)c1 |  |
| 91 nM | CCN(Cc1ccccc1)C(=O)c1cc(Cl)cc(OCCCONC(=N)N)c1 |  |
| 28 nM | COCCN(Cc1ccoc1)C(=O)c1cc(C)cc(OCCCON=C(N)N)c1 |  |
|  | CCCN(Cc1ccoc1)C(=O)c1cc(C)cc(OCC2(CON=C(N)N)CC2)c1 | half-life [1]: 4.4 h; Cmax [2]: 5.8 µM; bioavailability [3]: 73%; clearance [4]: 4.2 mL/min/kg; Vd [5]: 1.7 L/kg; Activity (Caco-2): 4.11e-06 cm/s |
| 147 nM | C=CCN(Cc1cccs1)C(=O)c1cc(Cl)cc(OCCCONC(=N)N)c1 |  |
| 8 nM | CCCCN(Cc1ccoc1)C(=O)c1cc(C)cc(OCCCONC(=N)N)c1 |  |
| 38 nM | COC(=O)CCN(CC1CC1)C(=O)c1cc(Cl)cc(OCCCONC(=N)N)c1 |  |
|  | CCCN(Cc1ccoc1)C(=O)c1cc(C)cc(OCCCON=C(N)N)c1 | Activity (Caco-2): 4.05e-06 cm/s; 2 x APTT (Homo sapiens): 11.5 µM |
| 48 nM | C[C@H](CS)C(=O)N1CCC[C@H]1C(=O)O [CAPTOPRIL] |  |
| 373 nM | CN(C(=O)c1cc(Cl)cc(OCCCONC(=N)N)c1)C1CCCC1 |  |

| Ki (Prothrombin) | Structure (SMILES) | further results |
| --- | --- | --- |
| 65 nM | CCOC(=O)CCN(CC1CC1)C(=O)c1cc(C)cc(OCCCONC(=N)N)c1 |  |
| 110 nM | Cc1cc(OCCCONC(=N)N)cc(C(=O)N(CCC(N)=O)Cc2ccoc2)c1 |  |
|  | Cc1cc(OCC2(CON=C(N)N)CC2)cc(C(=O)N(Cc2ccoc2)CC2CC2)c1 | Activity (Caco-2): 2.17e-06 cm/s; 2 x APTT (Homo sapiens): 8.7 µM |
| 17 nM | N=C(N)NOCCCOc1cc(Cl)cc(C(=O)N(Cc2ccoc2)CC2CC2)c1 |  |
| 2900 nM | N=C(N)NOCCCOc1cc(Cl)cc(C(=O)N2CCN(c3ccccc3)CC2)c1 |  |
| 33 nM | CN(C(=O)c1cc(Cl)cc(OCCCON=C(N)N)c1)C1CCCCC1 |  |
| 17 nM | CCCN(CC1CCC1)C(=O)c1cc(C)cc(OCCCON=C(N)N)c1 |  |
| 204 nM | N=C(N)NOCCCOc1cc(Cl)cc(C(=O)N(CCN2CCCC2)CC2CC2)c1 |  |
| 9 nM | C=CCN(C(=O)c1cc(C)cc(OCCCONC(=N)N)c1)C1CCCCC1 |  |
| 156 nM | COCCN(CC1CC1)C(=O)c1cc(Cl)cc(OCCCONC(=N)N)c1 |  |
|  | C=CCN(C(=O)c1cc(C)cc(OCCCON=C(N)N)c1)C1CCCC1 | Activity (Caco-2): 4.86e-06 cm/s; 2 x APTT (Homo sapiens): 11.3 µM |
| 59 nM | N=C(N)NOCCCOc1cc(Cl)cc(C(=O)N(CCc2ccccn2)CC2CC2)c1 |  |
| 159 nM | N=C(N)NOCCCOc1cc(Cl)cc(C(=O)N(CCN2CCOCC2)CC2CC2)c1 |  |
| 7 nM | Cc1cc(OCCCON=C(N)N)cc(C(=O)N(CCC(C)C)Cc2ccoc2)c1 |  |
| 171 nM | N=C(N)NOCCCOc1cc(Cl)cc(C(=O)N2CCc3ccccc3C2)c1 |  |
| 47 nM | N=C(N)NOCCCOc1cc(Cl)cc(C(=O)N(CCc2cccnc2)CC2CC2)c1 |  |
| 73 nM | CCCN(Cc1ccncc1)C(=O)c1cc(C)cc(OCCCONC(=N)N)c1 |  |
| 52 nM | N=C(N)NOCCCOc1cc(Cl)cc(C(=O)N(CCc2ccncc2)CC2CC2)c1 |  |
| 68 nM | Cc1cc(OCCCON=C(N)N)cc(C(=O)N(Cc2ccoc2)C(C)C)c1 |  |
| 86 nM | Cc1cc(OCCCONC(=N)N)cc(C(=O)N(Cc2ccccn2)CC2CC2)c1 |  |
| 94 nM | CCCN(Cc1ccccn1)C(=O)c1cc(C)cc(OCCCON=C(N)N)c1 |  |
| 52 nM | CCCN(Cc1cccnc1)C(=O)c1cc(C)cc(OCCCONC(=N)N)c1 |  |

| Structure (SMILES) | Ki (Prothrombin) | further results |
| --- | --- | --- |
| CCN(C(=O)c1cc(C)cc(OCCCONC(=N)N)c1)C1CCCCC1 | 6 nM |  |
| CCCN(CC1CCC1)C(=O)c1cc(Cl)cc(OCCCON=C(N)N)c1 | 16 nM |  |
| C=CCN(C(=O)c1cc(C)cc(OCCCONC(=N)N)c1)C1CCCC1 | 10 nM | half-life [1]: 3.7 h; Cmax [2]: 3.7 µM; bioavailability [3]: 89%; clearance [4]: 11.2 mL/min/kg; Vd [5]: 2.8 L/kg |
| Cc1cc(OCCCONC(=N)N)cc(C(=O)N(Cc2ccoc2)CC2CC2)c1 | 11 nM | half-life [1]: 2.5 h; Cmax [2]: 5.1 µM; bioavailability [3]: 68%; clearance [4]: 7.8 mL/min/kg; Vd [5]: 1.6 L/kg |
| Cc1cc(OCCCONC(=N)N)cc(C(=O)N(Cc2ccoc2)C2CCC2)c1 | 22 nM |  |
| CCCN(CC1CC1)C(=O)c1cc(Cl)cc(OCCCONC(=N)N)c1 | 23 nM |  |
| Cc1cc(OCCCONC(=N)N)cc(C(=O)N(Cc2ccncc2)CC2CC2)c1 | 24 nM |  |
| Cc1cc(OCCCON=C(N)N)cc(C(=O)N(Cc2ccoc2)CC2CCCCC2)c1 | 21 nM |  |
| CCCN(Cc1ccc(F)cc1)C(=O)c1cc(C)cc(OCCCON=C(N)N)c1 | 21 nM |  |
| Cc1cc(OCC2(CONC(=N)N)CC2)cc(C(=O)N(Cc2ccoc2)CC2CC2)c1 | 4 nM | half-life [1]: 5.9 h; Cmax [2]: 4.1 µM; bioavailability [3]: 77%; clearance [4]: 5.7 mL/min/kg; Vd [5]: 2.5 L/kg |
| CCSCCN(Cc1ccoc1)C(=O)c1cc(C)cc(OCCCON=C(N)N)c1 | 6 nM |  |
